Reference: PMC8521653 (ACS Medicinal Chemistry Letters, 2021)
Marks after values point to notes of the source that are not given here. Peptide text beside a SMILES is read from it. * marks the point of attachment. Cbz = O=C(OCc1ccccc1)*

Assays:
[1] = system: PREP-catalyzed α-synuclein dimerization in N2A cells; test: αSyn dimerization, protein fragment complementation assay (PCA) in N2A cells; type: cell-based; conditions: for activity at 10 µM: Mus musculus, luminescence signal percentage of DMSO control with SEM, N2A cells; for increase of aSyn dimerization compared to DMSO control: 10 µM proteasome inhibitor, positive control, % increase
Experimental: The effect of the compounds on autophagy was determined by using GFP-LC3B-RFP expressing HEK-293 cells.[15],[34] The effect on αSyn dimerization was evaluated with a protein fragment complementation assay (PCA) by using N2A cells.[10],[15],[16] The increase in autophagic flux was measured as a decrease in GFP signal due to increased degradation of GFP-LC3B, and the decrease in αSyn dimerization was measured as a decrease in luminescence, both compared with DMSO (Table 1). […] Rapamycin and starvation are known to induce autophagy, lowering the fluorescence to 65–70% in our assays, and were therefore used as reference compounds for this. Test compounds were assayed at 10 μM concentration with 0.1% DMSO. A graphical representation of the mean values (± SEM) can be seen in the Supporting Information (Figure S1).
Measuring biological activity […]
α-Synuclein Dimerization. αSyn dimerization was assessed by using PCA, which was carried out as described previously in Kilpeläinen et al.1 In short, N2A cells were seeded on poly-L-lysine-coated 96-well plates (Isoplate™ white wall, PerkinElmer Life Sciences) at the density of 13 000 cells/well. 24 h post-plating, reporter plasmids were transfected with 100 ng of total plasmid DNA per well. N2A cells were transfected with 25 ng of both αSyn-Gluc1 and αSyn-Gluc2 and 50 ng mock-plasmid or non-tagged human PREP expression plasmid 50 ng/well. Lipofectamine 3000 (Thermo Fischer Scientific) was used as the transfection reagent. 100 µL normal growth medium was added to all wells at 24 h post-transfection. 48 hours post-transfection medium was changed to phenol red free DMEM without serum containing the tested compounds at 10 µM concentration, with 0,1% DMSO as vehicle control. Proteasome inhibitors lactacystin (AG Scientific) at 10 µM and MG-132 (Enzo Life Sciences) at 10 µM served as a positive control. The PCA signal was assessed by injecting 25 µL of native coelenterazine (Nanolight Technology) in phenol red free DMEM per well (final concentration 6 µM). The emitted luminescence was read using Varioskan LUX multimode microplate reader (Thermo Scientific). For each experimental condition, 4 replicate wells were used in each experiment, and at least 3 separate experiments for each treatment except for 15c which had 2 separate experiments. […]

[2] = system: GFP-LC3B-RFP expressing HEK-293 cells; test: Autophagic flux, GFP signal in GFP-LC3B-RFP expressing HEK-293 cells; type: cell-based; conditions: for activity at 10 µM: Homo sapiens, HEK293, 24 h, GFP signal percentage of DMSO control with SEM, HEK-293 cells, read-out: autophagy at 10 μM (%); for activity at 10 µM / effect on autophagy (in words): 10 μM
[3] = biological target: T1, purified recombinant porcine PREP (Sus scrofa, UniProt P23687); test: Inhibition of the proteolytic activity of PREP, microplate assay with Suc-Gly-Pro-AMC substrate; type: biochemical; conditions: for PREP activity at 1 nM inhibitor concentration compared to control: remaining activity; for IC50: Suc-Gly-Pro-AMC, 30 °C, pH 7.0, 95% CI in brackets
T1 construct: made in house; host or cells: E. coli
T1 sequence (P23687 whole entry): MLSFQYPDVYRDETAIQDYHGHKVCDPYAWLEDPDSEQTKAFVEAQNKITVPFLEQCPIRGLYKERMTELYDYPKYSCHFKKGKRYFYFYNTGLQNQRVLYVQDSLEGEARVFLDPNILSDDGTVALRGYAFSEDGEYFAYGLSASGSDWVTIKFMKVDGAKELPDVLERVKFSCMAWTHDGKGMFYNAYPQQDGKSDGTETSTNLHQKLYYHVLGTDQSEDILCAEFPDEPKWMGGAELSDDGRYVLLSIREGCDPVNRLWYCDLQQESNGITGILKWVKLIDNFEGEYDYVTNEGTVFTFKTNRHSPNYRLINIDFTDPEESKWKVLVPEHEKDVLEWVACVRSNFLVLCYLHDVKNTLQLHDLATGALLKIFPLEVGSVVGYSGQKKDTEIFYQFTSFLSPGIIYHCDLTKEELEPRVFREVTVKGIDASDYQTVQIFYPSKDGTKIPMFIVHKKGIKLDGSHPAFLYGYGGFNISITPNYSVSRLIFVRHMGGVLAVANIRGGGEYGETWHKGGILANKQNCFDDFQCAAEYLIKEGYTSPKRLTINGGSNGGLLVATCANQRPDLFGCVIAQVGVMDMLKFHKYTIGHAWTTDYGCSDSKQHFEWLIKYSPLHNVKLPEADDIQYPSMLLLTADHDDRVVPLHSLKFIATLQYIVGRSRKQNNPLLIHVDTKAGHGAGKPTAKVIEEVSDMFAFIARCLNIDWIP
Experimental: Inhibition of the proteolytic activity (IC50) of PREP was determined using purified recombinant porcine PREP[25] as previously described.[16]
Measuring biological activity
Inhibitory Activity. The IC 50 values for compounds were determined in the microplate assay procedure described in Kilpeläinen et al.1 Porcine PREP cDNA was expressed in E.coli cells and purified as described in Venäläinen et al.3 The enzyme dilution was preincubated with 0.1 M sodium–potassium phosphate buffer (75 µL, pH 7.0) containing the compounds at desired concentrations in 30 °C for 30 min. The final concentration of the compounds in the assay mixture varied from 1 mM-1 nM and the final concentration of the enzyme was approximately 0.1 nM as measured by Bradford´s method. The enzyme reaction was carried out by adding 25 µL of 4 mM Suc-Gly-Pro-AMC substrate dissolved in 0.1 M sodium–potassium phosphate buffer (pH 7.0) into the assay mixture and incubating at 30° C for 60 min. The reaction was terminated by adding […] of 1 M sodium acetate buffer (pH 4.2). Formation of AMC was measured with Victor2 multilabel counter (PerkinElmer; excitation/emission 360 nm/ 460 nm), with a standard curve of 0.1-5 nM AMC in 0.1 M sodium–potassium phosphate buffer present. All activity measurements were made at least in triplicate. The inhibitory activities (percent of control) were plotted against the log concentration of the compound, and the IC50-value was determined by non-linear regression utilizing GraphPad Prism 7.0 software. […]

[4] = system: PREP-catalyzed α-synuclein dimerization in N2A cells; conditions: luminescence signal percentage of DMSO control with SEM, ref Kilpeläinen et al.[16]; cited from earlier work

SMILES	activity at 10 µM ([1]; 10 μM) [%]	activity at 10 µM [2] [%]	IC50 ([3]; recombinant porcine PREP) [nM]	effect on αSyn dimerization (in words) ([1]; 10 μM)	effect on autophagy (in words) [2]	other results
C[C@H](NC(=O)CCCc1ccccc1)C(=O)N1CCC[C@H]1c1nnc[nH]1 [Compound 20b]	110	91				
O=C(CCCCc1ccccc1)N1CCC[C@H]1C(=O)N1CCC[C@H]1c1ncc[nH]1 [Compound 28a]	110	102	< 1			PREP activity at 1 nM inhibitor concentration compared to control [3]: 20%
C[C@H](NC(=O)CCCCc1ccccc1)C(=O)N1CCC[C@H]1c1nnn[nH]1 [Compound 16b]	92	94	5000			
O=C(CCc1ccccc1)N1CCC[C@H]1C(=O)N1CCC[C@H]1c1ncc[nH]1 [Compound 26a]	89	102	< 1	still retaining some modulating activity		PREP activity at 1 nM inhibitor concentration compared to control [3]: 41%
Cn1nnc([C@@H]2CCCN2C(=O)[C@@H]2CCCN2C(=O)CCCc2ccccc2)n1 [Compound 19a]	101	85		lost the activity on αSyn dimerization	capable of inducing autophagy	
C[C@H](NC(=O)CCCc1ccccc1)C(=O)N1CCC[C@H]1c1ncc[nH]1 [Compound 27b]	110	106	2100	did not retain either of the activities	did not retain either of the activities	
O=C(c1ncc[nH]1)[C@@H]1CCCN1C(=O)[C@@H]1CCCN1C(=O)CCCc1ccccc1 [Compound 2a, reference compound]	99	95	< 1	lack of activity	lack of activity	PREP activity at 1 nM inhibitor concentration compared to control [3]: 43%
O=C(CCCc1ccccc1)N1CCC[C@H]1C(=O)N1CCC[C@H]1c1cnc[nH]1 [Compound 29a]	98	92	44	no activity on αSyn dimerization	some minor activity in modulating autophagy	
O=C(CCCc1cccs1)N1CCC[C@H]1C(=O)N1CCC[C@H]1c1nnn[nH]1 [Compound 17a]	87	87	94	maintained some activity on αSyn dimerization	slightly improved the activity in inducing autophagy	
CC(C)C[C@@H](C=O)NC(=O)[C@H](CC(C)C)NC(=O)[C@H](CC(C)C)NC(=O)OCc1ccccc1 [MG-132, reference compound] (Cbz-Leu-Leu-Leu-aldehyde)						increase of aSyn dimerization compared to DMSO control ([1]; PCA): 29%
O=C(CCCc1ccccc1)N1CCC[C@H]1C(=O)N1CCC[C@H]1c1cnn[nH]1 [Compound 25a]	104	93	1100			
O=C(CCCc1ccccc1)N1CCC[C@H]1C(=O)N1CCC[C@H]1c1ccn[nH]1 [Compound 30a]	99	89		no activity on αSyn dimerization	some minor activity in modulating autophagy	IC50 value (in words) ([3]; recombinant porcine PREP): micromolar range
C[C@H](NC(=O)CCCc1cccs1)C(=O)N1CCC[C@H]1c1nnn[nH]1 [Compound 17b]	93	92	1100	inactive for both functions	inactive for both functions	
C[C@@H](C(=O)N1CCC[C@H]1c1nnn[nH]1)N(C)C(=O)CCCc1ccccc1 [Compound 1d]		93			no significant activity	α-synuclein dimerization at 10 μM (%) [4]: 75 ^e (7.3) %
CN(CC(=O)N1CCC[C@H]1c1nnn[nH]1)C(=O)CCc1ccccc1 [Compound 15c]	95	95				
Cn1nnnc1[C@@H]1CCCN1C(=O)[C@@H]1CCCN1C(=O)CCCc1ccccc1 [Compound 18a]	105	88	520000	lost the activity on αSyn dimerization	capable of inducing autophagy	
CC(=O)N[C@@H](CSC(=O)[C@]1([C@@H](O)C(C)C)NC(=O)[C@H](C)[C@@H]1O)C(=O)O [lactacystin, reference compound]						increase of aSyn dimerization compared to DMSO control ([1]; PCA): 32%
CO[C@H]1C[C@@H]2CC[C@@H](C)[C@@](O)(O2)C(=O)C(=O)N2CCCC[C@H]2C(=O)O[C@H]([C@H](C)C[C@@H]2CC[C@@H](O)[C@H](OC)C2)CC(=O)[C@H](C)/C=C(\C)[C@@H](O)[C@@H](OC)C(=O)[C@H](C)C[C@H](C)/C=C/C=C/C=C/1C [rapamycin, reference compound]						decrease in autophagic flux assay GFP signal compared to DMSO control ([2]; 0.5 µM, positive control, % decrease): 34%; fluorescence (GFP signal) relative to DMSO control ([2]; reference for autophagy induction, in our assays): 65–70%
C[C@H](NC(=O)CCc1ccccc1)C(=O)N1CCC[C@H]1c1nnn[nH]1 [Compound 15b]	98	90	3900			
O=C(CCCCc1ccccc1)N1CCC[C@H]1C(=O)N1CCC[C@H]1c1nnn[nH]1 [Compound 16a]	102	98	770			
O=C(CCCc1ccccc1)N1CCC[C@H]1C(=O)N1CCC[C@H]1c1ncc[nH]1 [Compound 27a]	72	96	< 1		no effect on autophagy	PREP activity at 1 nM inhibitor concentration compared to control [3]: 25%; decrease of aSyn dimerization compared to DMSO control ([1]; 10 μM, PCA, Figure S1A, % decrease): 28%
O=C(CCCc1ccccc1)N1CCC[C@H]1C(=O)N1CCC[C@H]1c1nnc[nH]1 [Compound 20a]	96	87		no activity on αSyn dimerization	some minor activity in modulating autophagy	
O=C(CCc1ccccc1)N1CCC[C@H]1C(=O)N1CCC[C@H]1c1nnn[nH]1 [Compound 15a]	116	96	1000			
CN(CC(=O)N1CCC[C@H]1c1nnn[nH]1)C(=O)CCCc1ccccc1 [Compound 1c]		84			some effect	α-synuclein dimerization at 10 μM (%) [4]: 75 ^e (7.7) %
CO/C1=C\C(C)=C\[C@@H](C)[C@@H](O)[C@@H](C)C/C(C)=C/C=C/[C@H](OC)[C@@H]([C@@H](C)[C@@H](O)[C@H](C)[C@@]2(O)C[C@@H](O)[C@H](C)[C@@H](C(C)C)O2)OC1=O [bafilomycin A1, reference compound]						increase in autophagic flux assay GFP signal compared to DMSO control ([2]; 20 nM, autophagy inhibitor control, % increase): 40%
